{"source": "patent US11793748B1", "about": "“Pharmaceutical compositions of aspirin for parenteral administration” (GOOD HEALTH, LLC, priority 2019, dated 2023)", "key": {"[1]": {"details": "solubilization accompanied by aspirin degradation; cited from earlier work"}, "[2]": {"assay": "Effect of bases on reconstitution time for aspirin in propylene glycol", "format": "physicochemical", "details": "aspirin 40 mg/mL, with shaking", "experimental": "Solutions of propylene glycol with different bases were prepared by sonicating mixtures of propylene glycol and bases. Aspirin was added to those solutions and shaken in a circular motion."}, "[3]": {"assay": "Solubility and reconstitution of aspirin in semi-aqueous diluents", "format": "physicochemical", "details": "aspirin 80 mg (sieve 120 mesh passed), after shaking for 5 minutes", "experimental": "Diluent solutions were prepared by mixing solvent and water. Aspirin was added and the vials were shaken in a swirling motion."}, "[4]": {"assay": "Solubility testing of aspirin in commonly used co-solvents", "format": "physicochemical", "details": "120 mg/3 mL; for Reconstitution time for milled API (Approx. 124 μm, BSS Sieve 120 passed): after shaking", "experimental": "The solubility of aspirin was determined using propylene glycol and polyethylene glycol (PEG-300 and PEG-400), which are widely used in intravenous formulations."}, "[5]": {"assay": "Effect of lactose on reconstitution time in solvent-water mixture", "format": "physicochemical", "details": "aspirin 80 mg, lactose 80 mg", "experimental": "Diluent Preparation: Water, lactose, and base were taken in a vial and sonicated until a clear solution is formed. Solvent was then added and mixed for a minute. To these diluents, aspirin was added and shaken in a swirling motion."}, "[6]": {"assay": "Reconstitution time for aspirin-lactose premix", "format": "physicochemical", "details": "aspirin 80 mg + 160 mg lactose premix (both 120 sieve passed), water 1.5 ml", "text": "[…] The diluent was transferred to a vial containing aspirin triturated with lactose. The mixture was shaken in the vial in a swirling motion."}, "[7]": {"details": "bicin, tricin, CAPS, TAPS, HEPES and AMPSO buffers; remained as suspended particles; cited from earlier work"}, "[8]": {"assay": "Reconstitution trials for micronized aspirin with aqueous solutions containing bases", "format": "physicochemical", "details": "aspirin 5.0 mg/mL; reconstitution with meglumine", "experimental": "[…] […] Shaken up and down vigorously to check reconstitution and clarity.\nThe reconstitution of higher doses of aspirin with aqueous solutions of bases indicate superiority using a combination of meglumine and sodium citrate over same bases used separately.\nTherefore, these dilute solutions of the invention are suitable for slow infusion for a longer time. For example, the infusion can be made over 30 minutes to about 100 minutes with an infusion rate of about 3 mL/min to 0.8 mL/min. The rate of infusion of the invention can depend on the clinical conditions of patients, and can be modified as necessary. In certain cases, a bolus injection of concentrated aspirin solutions may be required. The aspirin solution (50 mg/mL) of the invention can be given as a bolus injection (e.g., 10 mL within 2-5 minutes)."}, "[9]": {"assay": "Stability of recrystallized aspirin powder", "details": "for % Assay / % S.A (salicylic acid impurity): 6 months 40° C./75% RH"}, "[10]": {"assay": "Effect of lactose and mannitol combination on reconstitution time", "format": "physicochemical", "details": "aspirin 80 mg (120 sieve passed)", "experimental": "A mixture of lactose and mannitol were tried to improve reconstitution time. Diluents were then prepared by dissolving base and sugars in water and followed by addition of PEG 300. The diluent was transferred to a vial containing aspirin, and the vial was shaken in a swirling motion."}, "[11]": {"assay": "Stability of reconstituted aspirin solutions by HPLC", "format": "physicochemical", "experimental": "Stability was determined by HPLC analysis using the following parameters:\nMobile Phase: Solution containing 15% acetonitrile and 85% water with 2 g/L of heptanesulfonate sodium. The pH of the solution was adjusted to 3.4.\nInjection volume: 10 μl, the concentration of aspirin in sample and standard injections were maintained at about 0.5 mg/mL.\nThe stability of Trials 3-5 was tested using the HPLC method described above."}, "[12]": {"details": "Lysine 40 mg, water 1.8 ml + PEG 300 1.2 ml"}, "[13]": {"details": "Lysine 40 mg, water 1.8 ml + PEG 400 1.2 ml"}, "[14]": {"details": "Tris 40 mg, water 1.8 ml + PEG 300 1.2 ml"}, "[15]": {"details": "Tris 40 mg, water 1.8 ml + PEG 400 1.2 ml"}, "[16]": {"details": "Lysine 40 mg, lactose 80 mg + mannitol 80 mg, water 1.2 ml + PEG-300 1.8 ml"}, "[17]": {"details": "Meglumine 40 mg, lactose 20 mg + mannitol 60 mg, distilled water 1.2 ml + PEG 300 1.8 ml"}, "[18]": {"details": "Meglumine 40 mg, lactose 20 mg + mannitol 60 mg, distilled water 1.5 ml + PEG 300 1.5 ml"}, "[19]": {"details": "Meglumine 40 mg, lactose 20 mg + mannitol 60 mg, distilled water 1.8 ml + PEG 300 1.2 ml"}, "[20]": {"details": "Tris 40 mg, lactose 20 mg + mannitol 60 mg, distilled water 1.2 ml + PEG 300 1.8 ml"}, "[21]": {"details": "Tris 40 mg, lactose 20 mg + mannitol 60 mg, distilled water 1.5 ml + PEG 300 1.5 ml"}, "[22]": {"details": "Tris 40 mg, lactose 20 mg + mannitol 60 mg, distilled water 1.8 ml + PEG 300 1.2 ml"}, "[23]": {"details": "Tris 40 mg, lactose 80 mg + mannitol 80 mg, water 1.2 ml + PEG-300 1.8 ml"}, "[24]": {"details": "Tris 40 mg, lactose 80 mg + mannitol 80 mg, water 1.5 ml + PEG-300 1.5 ml"}, "[25]": {"details": "Tris 40 mg, lactose 80 mg + mannitol 80 mg, water 1.8 ml + PEG-300 1.2 ml"}, "[26]": {"details": "Aspirin API, not reconstituted (reference line of stability tables)"}}}
{"smiles": "CC(=O)Oc1ccccc1C(=O)O", "note": "[Aspirin, aspirin]", "values": [{"measurement": "solubility in aqueous alkali hydroxide solutions and aqueous bicarbonate solutions", "setting": "[1]", "value": "soluble"}, {"measurement": "Reconstitution time for milled API (Approx. 124 μm, BSS Sieve 120 passed)", "setting": "[2]; propylene glycol with 10 mg/mL Arginine", "value": 3, "unit": "minutes with shaking."}, {"measurement": "Reconstitution time for milled API (Approx. 124 μm, BSS Sieve 120 passed)", "setting": "[2]; propylene glycol with 10 mg/mL Lysine", "value": 1.40, "unit": "minutes with shaking."}, {"measurement": "Reconstitution time for milled API (Approx. 124 μm, BSS Sieve 120 passed)", "setting": "[2]; propylene glycol with 10 mg/mL Meglumine", "value": 2, "unit": "minutes with shaking."}, {"measurement": "Reconstitution time for milled API (Approx. 124 μm, BSS Sieve 120 passed)", "setting": "[2]; propylene glycol with 10 mg/mL Tromethamine", "value": 1.45, "unit": "minutes with shaking."}, {"measurement": "Observation", "setting": "[3]; 1.8 mL PEG 300 + 1.2 mL water", "value": "Turbid with particles"}, {"measurement": "Observation", "setting": "[3]; 1.8 mL PEG 400 + 1.2 mL water", "value": "Turbid with particles"}, {"measurement": "Observation", "setting": "[3]; 1.8 mL propylene glycol + 1.2 mL water", "value": "Turbid with particles"}, {"measurement": "Reconstitution time for unmilled Aspirin", "setting": "[4]; PEG-300", "value": "Not easily soluble,"}, {"measurement": "Reconstitution time for milled API (Approx. 124 μm, BSS Sieve 120 passed)", "setting": "[4]; PEG-300", "value": "Soluble in 3 minutes,"}, {"measurement": "Reconstitution time for unmilled Aspirin", "setting": "[4]; PEG-400", "value": "Not easily soluble,"}, {"measurement": "Reconstitution time for milled API (Approx. 124 μm, BSS Sieve 120 passed)", "setting": "[4]; PEG-400", "value": "Soluble in 3 minutes,"}, {"measurement": "Reconstitution time for unmilled Aspirin", "setting": "[4]; propylene glycol", "value": "Not easily soluble,"}, {"measurement": "Reconstitution time for milled API (Approx. 124 μm, BSS Sieve 120 passed)", "setting": "[4]; propylene glycol", "value": "Soluble in 3 minutes,"}, {"measurement": "Observation", "setting": "[5]; [12]", "value": "Clear"}, {"measurement": "Reconstitution time", "setting": "[5]; [12]", "value": 3.15, "unit": "min"}, {"measurement": "Observation", "setting": "[5]; [13]", "value": "Clear"}, {"measurement": "Reconstitution time", "setting": "[5]; [13]", "value": 3.50, "unit": "min"}, {"measurement": "Observation", "setting": "[5]; [14]", "value": "Clear"}, {"measurement": "Reconstitution time", "setting": "[5]; [14]", "value": 3.20, "unit": "min"}, {"measurement": "Observation", "setting": "[5]; [15]", "value": "Clear"}, {"measurement": "Reconstitution time", "setting": "[5]; [15]", "value": 2.40, "unit": "min"}, {"measurement": "Observation", "setting": "[6]; Tris 30 mg", "value": "Clear"}, {"measurement": "Reconstitution time", "setting": "[6]; Tris 30 mg", "value": 2.00, "unit": "min"}, {"measurement": "Observation", "setting": "[6]; Tris 35 mg", "value": "Clear"}, {"measurement": "Reconstitution time", "setting": "[6]; Tris 35 mg", "value": 1.25, "unit": "min"}, {"measurement": "Observation", "setting": "[6]; Tris 40 mg", "value": "Clear"}, {"measurement": "Reconstitution time", "setting": "[6]; Tris 40 mg", "value": 1.00, "unit": "min"}, {"measurement": "Observation", "setting": "[6]; Tris 50 mg", "value": "hazy"}, {"measurement": "Reconstitution time", "setting": "[6]; Tris 50 mg", "value": 1.40, "unit": "min"}, {"measurement": "solubility in aqueous buffers", "setting": "[7]", "value": "poor"}, {"measurement": "time to clear solution on reconstitution", "setting": "[8]", "value": "≤ 2", "unit": "min"}, {"measurement": "period stable at room temperature", "setting": "[9]; room temperature, inferred from accelerated stability data", "value": "at least 2 years"}, {"measurement": "Observation", "setting": "[10]; [16]", "value": "hazy"}, {"measurement": "Reconstitution time", "setting": "[10]; [16]", "value": 2.00, "unit": "min"}, {"measurement": "Observation", "setting": "[10]; [17]", "value": "hazy"}, {"measurement": "Reconstitution time", "setting": "[10]; [17]", "value": 2.00, "unit": "min"}, {"measurement": "Observation", "setting": "[10]; [18]", "value": "Clear"}, {"measurement": "Reconstitution time", "setting": "[10]; [18]", "value": 2.20, "unit": "min"}, {"measurement": "Observation", "setting": "[10]; [19]", "value": "Clear"}, {"measurement": "Reconstitution time", "setting": "[10]; [19]", "value": 2.30, "unit": "min"}, {"measurement": "Observation", "setting": "[10]; [20]", "value": "Clear"}, {"measurement": "Reconstitution time", "setting": "[10]; [20]", "value": 2.00, "unit": "min"}, {"measurement": "Observation", "setting": "[10]; [21]", "value": "Clear"}, {"measurement": "Reconstitution time", "setting": "[10]; [21]", "value": 2.10, "unit": "min"}, {"measurement": "Observation", "setting": "[10]; [22]", "value": "Clear"}, {"measurement": "Reconstitution time", "setting": "[10]; [22]", "value": 2.30, "unit": "min"}, {"measurement": "Observation", "setting": "[10]; [23]", "value": "hazy"}, {"measurement": "Reconstitution time", "setting": "[10]; [23]", "value": 2.10, "unit": "min"}, {"measurement": "Observation", "setting": "[10]; [24]", "value": "Clear"}, {"measurement": "Reconstitution time", "setting": "[10]; [24]", "value": 2.25, "unit": "min"}, {"measurement": "Observation", "setting": "[10]; [25]", "value": "Clear"}, {"measurement": "Reconstitution time", "setting": "[10]; [25]", "value": 2.10, "unit": "min"}, {"measurement": "% Salicylic acid", "setting": "[11]; [26]", "value": 0.24, "unit": "%"}, {"measurement": "Aspirin peak purity", "setting": "[11]; [26]", "value": 99.76, "unit": "%"}, {"measurement": "period for which reconstituted aspirin was stable", "setting": "[11]; higher concentration (50 mg/mL), aqueous solution containing both meglumine and sodium citrate, 2-8° C.", "value": "about 5 hours"}]}
{"smiles": "CC(=O)Oc1ccccc1C(=O)O", "note": "[Recrystallization from Acetone]", "values": [{"measurement": "% Assay", "setting": "[9]; recrystallized powder", "value": 97.20, "unit": "%"}, {"measurement": "% S.A (salicylic acid impurity)", "setting": "[9]; recrystallized powder", "value": 0.505, "unit": "%"}]}
{"smiles": "CC(=O)Oc1ccccc1C(=O)O", "note": "[Recrystallization from Ethanol]", "values": [{"measurement": "% Assay", "setting": "[9]; recrystallized powder", "value": 97.72, "unit": "%"}, {"measurement": "% S.A (salicylic acid impurity)", "setting": "[9]; recrystallized powder", "value": 0.452, "unit": "%"}, {"measurement": "stability at accelerated conditions", "setting": "[9]; recrystallized powder, accelerated conditions (6 months 40° C./75% RH)", "value": "stable"}]}
{"smiles": "CC(=O)Oc1ccccc1C(=O)O", "note": "[Recrystallization from Isopropanol]", "values": [{"measurement": "% Assay", "setting": "[9]; recrystallized powder", "value": 99.35, "unit": "%"}]}
